Experimental findings from PubChem BioAssay (NCI) are described below.

Several values for one entry are separate records, joined by “and”; a condition that tells them apart may be missing. Identical values can stand only once.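 Tested at 5 concentrations; 48 h exposure; 96-well plates; endpoints linearly interpolated, else capped at highest concentration. Here, GI50 denotes the concentration required for 50% inhibition of growth. TGI: total growth inhibition.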 Where a SMILES comes first, the peptide text is derived from it. The star is where a group is joined. Boc = CC(C)(C)OC(=O)*

Some test systems named below: LXFL 529 NSCLC; DMS 114 small cell lung; OVCAR-4 ovarian; DLD-1 colon; OVCAR-5 ovarian; SNB-78 CNS; SF-268 CNS; SNB-19 CNS; SK-MEL-5 melanoma; K-562 leukemia; HCC-2998 colon; DU-145 prostate.
What all share (assay): NCI-60 cell line screen, 48 h

For the compound `Cc1cccc(C)c1NC(=O)/C(=N/NC(N)=S)C(C)C(=O)c1ccc(Cl)cc1` (centres undefined), the TGI with LXFL 529 NSCLC, in the experiment on DMS 114 small cell lung, in the experiment with OVCAR-4 ovarian, with DLD-1 colon, in the experiment on OVCAR-5 ovarian and in the experiment with SNB-78 CNS was above 100 µM each time. Moreover, the TGI with SF-268 CNS, in the experiment on SNB-19 CNS, in the experiment on SK-MEL-5 melanoma, with K-562 leukemia and in the experiment with HCC-2998 colon was above 100 µM throughout.
In the case of `Cc1[nH]c2ccccc2c1C(=O)CC1(O)C(=O)Nc2c(Cl)cc(Cl)cc21` (centres undefined), the TGI in the experiment on LXFL 529 NSCLC was 30.8 µM; with DMS 114 small cell lung it was 44.9 µM; with OVCAR-4 ovarian, 21.8 µM; with DLD-1 colon, above 100 µM; in the experiment with OVCAR-5 ovarian, 52.1 µM; with SNB-78 CNS it was above 100 µM. Further, the TGI was 57.3 µM in the experiment with SF-268 CNS; above 100 µM with SNB-19 CNS; 31.5 µM with SK-MEL-5 melanoma; 58 µM with K-562 leukemia; above 100 µM with HCC-2998 colon.
On to `COC(=O)C1(C)CCc2c(OC)ccc(OC)c2C1=O` (centres undefined), for which the TGI in the experiment on LXFL 529 NSCLC, in the experiment with DMS 114 small cell lung, in the experiment with OVCAR-4 ovarian, with DLD-1 colon, in the experiment with OVCAR-5 ovarian and in the experiment with SNB-78 CNS was above 100 µM each time. Also, the TGI with SF-268 CNS, with SNB-19 CNS, in the experiment with SK-MEL-5 melanoma, in the experiment on K-562 leukemia and in the experiment on HCC-2998 colon was above 100 µM throughout.
As for `Nc1nc(OCc2ccccc2)c2[nH]cnc2n1`, the TGI was 400 µM with LXFL 529 NSCLC; 191 µM in the experiment with DMS 114 small cell lung; 266 µM with DU-145 prostate; 365 µM and 528 µM with OVCAR-4 ovarian; 400 µM in the experiment on DLD-1 colon; 241 µM and 240 µM with OVCAR-5 ovarian. Besides, the TGI in the experiment on SNB-78 CNS was 400 µM; in the experiment on SF-268 CNS it was 400 µM and 574 µM; in the experiment on SNB-19 CNS, 400 µM and 213 µM; with SK-MEL-5 melanoma, 193 µM and 149 µM; in the experiment with K-562 leukemia, 400 µM and 307 µM; with HCC-2998 colon it was 400 µM and 182 µM. Besides, the GI50 in the experiment with DU-145 prostate is 33.6 µM and 30.1 µM; in the experiment with OVCAR-4 ovarian, 41.2 µM and 43.4 µM; with OVCAR-5 ovarian, 52.7 µM and 42.6 µM; in the experiment on SF-268 CNS, 53.2 µM; in the experiment with SNB-19 CNS it was 86.2 µM and 33 µM; with SK-MEL-5 melanoma, 34.5 µM and 35.4 µM. Besides, the GI50 was 46.4 µM with K-562 leukemia; 46.2 µM and 56 µM in the experiment with HCC-2998 colon.
With `O=C1NC(=O)C2C(=O)NC(=O)C1C2c1c(Cl)cccc1Cl` (centres undefined), the TGI in the experiment with LXFL 529 NSCLC is above 100 µM; with DMS 114 small cell lung it was above 53.5 µM; in the experiment with OVCAR-4 ovarian, above 100 µM; with DLD-1 colon, above 60.8 µM; in the experiment on OVCAR-5 ovarian, above 100 µM; with SNB-78 CNS it was above 100 µM. The TGI in the experiment on SF-268 CNS was above 96.7 µM; with SNB-19 CNS, above 100 µM; in the experiment on SK-MEL-5 melanoma, above 100 µM; in the experiment on K-562 leukemia it was above 71.7 µM; in the experiment on HCC-2998 colon it was above 100 µM.
Take `COc1ccc2c(c1)C(=O)C1CC(=O)CCC21` (centres undefined): the TGI with LXFL 529 NSCLC, with DMS 114 small cell lung, in the experiment on OVCAR-4 ovarian, in the experiment with DLD-1 colon, with OVCAR-5 ovarian and in the experiment with SNB-78 CNS was above 100 µM throughout. The TGI with SF-268 CNS, in the experiment with SNB-19 CNS, in the experiment on SK-MEL-5 melanoma, with K-562 leukemia and in the experiment with HCC-2998 colon was above 100 µM throughout.
For the compound `O=C(/C=C/c1ccccc1)CCN1CCOCC1`, the TGI with LXFL 529 NSCLC is 8.43 µM; with DMS 114 small cell lung, 23.9 µM; in the experiment on DU-145 prostate, 40.4 µM; in the experiment with OVCAR-4 ovarian it was 42.5 µM; in the experiment on DLD-1 colon, 22.1 µM; in the experiment with OVCAR-5 ovarian, 27.1 µM. The TGI with SNB-78 CNS stood at 47.3 µM; in the experiment with SF-268 CNS, 38.3 µM; in the experiment on SNB-19 CNS it was 39.9 µM; in the experiment with SK-MEL-5 melanoma it was 33.5 µM; in the experiment on K-562 leukemia it was 12.6 µM; in the experiment on HCC-2998 colon it was 38 µM.
As for `CC(C)(C)OC(=O)NC(Cc1ccc(O)cc1)C(=O)N1CCCC1C(=O)O` (stereo not drawn) (Boc-Tyr-Pro-OH; configuration not given here), the TGI with LXFL 529 NSCLC, in the experiment on DMS 114 small cell lung, with OVCAR-4 ovarian, in the experiment on DLD-1 colon, in the experiment with OVCAR-5 ovarian and in the experiment on SNB-78 CNS was above 100 µM in each case. For the same compound, the TGI in the experiment with SF-268 CNS, in the experiment on SNB-19 CNS, with SK-MEL-5 melanoma, with K-562 leukemia and in the experiment with HCC-2998 colon was above 100 µM each time.
`CC/C=C\C/C=C\C/C=C\CCCCCCCC(=O)OCC(O)CO` (centres undefined): the TGI is above 68.9 µM with LXFL 529 NSCLC; above 71 µM in the experiment on DMS 114 small cell lung; above 100 µM in the experiment on OVCAR-4 ovarian; above 100 µM in the experiment on DLD-1 colon; above 100 µM with OVCAR-5 ovarian; above 73.8 µM in the experiment with SNB-78 CNS. Also, the TGI in the experiment with SF-268 CNS was above 100 µM; in the experiment on SNB-19 CNS, above 100 µM; with SK-MEL-5 melanoma, above 100 µM; with K-562 leukemia, 49 µM; with HCC-2998 colon, above 100 µM.
